According to patent EP4289427A1, “DIHYDRO[1,8]NAPHTHYRIDIN-7-ONE AND PYRIDO[3,2-B][1,4]OXAZIN-3-ONE FOR USE IN TREATING CANCER, AND METASTASES IN PARTICULAR” (Anagenesis Biotechnologies, priority 2022, dated 2023):

Experiments:
RD cells = experiment: Cytotoxicity assay (CellTiter-Glo 2.0) on RD cells; type: cell-based, Human; conditions: for IC50: Homo sapiens
Protocol: (§1) Cytotoxicity assays consist in treating cells with compounds and assessing remaining viability after a defined incubation time, depending on the cell line. CellTiter-Glo® 2.0 reagent allows viability measurement by quantification of ATP present, which is an indicator of metabolically active cells.
(§2) The cancer cell lines were cultivated in their respective growth medium (see tables 6a and 6b). On day 0 of the cytotoxicity assay, the cells were harvested and seeded into a 384-well plate at a defined density in their respective growth medium (see tables 6a and 6b). Compounds to be tested were then added onto the cells and incubated for a defined duration (see tables 6a and 6b). Following incubation, CellTiter-Glo® 2.0 reagent (cat.no. G9241 from Promega) was added into the wells (vol/vol, according to the manufacturer's recommendations), plates were gently shaken and incubated for 10 minutes in the dark at room temperature. Bioluminescence was then measured with a multimode plate reader (Victor Nivo from Perkin Elmer), and cell viability and relative IC50 were determined. Table 6a: Cancer cell characteristics, culture and cytotoxic assay conditions

HUVECs = experiment: Tube formation assay (anti-angiogenic activity); type: cell-based, human; conditions: incubation 16 to 18 hours; for IC50: Homo sapiens, HUVEC
From the text: Angiogenesis is a phenomenon that includes different processes, such as endothelial cell proliferation, migration and differentiation that lead to the formation of new blood vessels. Tube formation assay is a standard in vitro test to assess angiogenesis: briefly, human Umbilical Vein Endothelial cells (hereafter "HUVECs") cultivated on a gelled basement matrix spontaneously proliferate, migrate and differentiate to form tube-like structures, that appear elongated and that connect to each other to form a network.
HUVECs were cultivated in Endothelial Cell Growth Medium (cat.no. C-22010 from Promocell) supplemented with 1% PenStrep (hereafter "HUVEC medium"). On day 0, HUVECs were harvested and transferred into a 384-well plate precoated with 10 µl/well of Cultrex UltiMatrix Reduced Growth factor basement membrane (cat.no. BME001-10 from BioTechne), according to the manufacturer's instructions, at a density of 5000 cells/well in HUVEC medium. Compounds to be tested were then added onto the cells and incubated for 16 to 18 hours at 37°C. After this incubation period, the cells were stained with calcein-AM (cat.no. 10462052 from Fisher Scientific) and pictures were acquired using a confocal fluorescent microscope (IXM from Molecular Devices). Tube formation was measured with MetaXpress® Software.

EoL-1 cells = experiment: Cytotoxicity assay (CellTiter-Glo 2.0) on EoL-1 cells; type: cell-based, Human; conditions: incubation 1 day; for IC50: Homo sapiens, EOL1, 24 h
Protocol: as §1, §2

4T1 cells = experiment: Cytotoxicity assay (CellTiter-Glo 2.0) on 4T1 cells; type: cell-based, Mouse; conditions: incubation 2 days; for IC50: Mus musculus, 48 h
Protocol: as §1, §2

MDA-MB-231 cells = experiment: Cytotoxicity assay (CellTiter-Glo 2.0) on MDA-MB-231 cells; type: cell-based, Human; conditions: incubation 3 days; for IC50: Homo sapiens, 72 h
Protocol: as §1, §2

CSc1cc(Oc2ccnc3c2CCC(=O)N3)ccc1NC(=O)Nc1cc(C(C)(C)C)on1 [Compound 026, 1-(5-tert-butylisoxazol-3-yl)-3-[2-methylsulfanyl-4-[(7-oxo-6,8-dihydro-5H-1,8-naphthyridin-4-yl)oxy]phenyl]urea]
Cytotoxicity (RD cells; 2 day-treatment): ++ (50% ≤ cytotoxicity < 85%)
Cytotoxicity (RD cells; 4 day-treatment): ++ (50% ≤ cytotoxicity < 85%)
IC50 (RD cells; 48 h, 2 day-treatment): 1000 to 5000 nM
IC50 (RD cells; 96 h, 4 day-treatment): 1000 to 5000 nM
IC50 (HUVECs): 100 to 500 nM
Angiogenesis inhibition (HUVECs): +++ (angiogenesis inhibition ≥ 80%)
IC50 (EoL-1 cells): < 1 nM
Cytotoxicity (EoL-1 cells): +++ (cytotoxicity ≥ 85%)
IC50 (4T1 cells): 1000 to 5000 nM
Cytotoxicity (4T1 cells): +++ (cytotoxicity ≥ 85%)
IC50 (MDA-MB-231 cells): 1000 to 5000 nM
Cytotoxicity (MDA-MB-231 cells): ++ (50% ≤ cytotoxicity < 85%)

CN(C)Cc1cccc(-n2nc(C(C)(C)C)cc2NC(=O)Nc2ccc(Oc3ccnc4c3CCC(=O)N4)cc2C(F)(F)F)c1 [Compound 028, 1-[5-tert-butyl-2-[3-[(dimethylamino)methyl]phenyl]pyrazol-3-yl]-3-[4-[(7-oxo-6,8-dihydro-5H-1,8-naphthyridin-4-yl)oxy]-2-(trifluoromethyl)phenyl]urea]
Cytotoxicity (RD cells; 2 day-treatment): ++ (50% ≤ cytotoxicity < 85%)
Cytotoxicity (RD cells; 4 day-treatment): +++ (cytotoxicity ≥ 85%)
IC50 (RD cells; 48 h, 2 day-treatment): 1000 to 5000 nM
IC50 (RD cells; 96 h, 4 day-treatment): 1000 to 5000 nM
IC50 (HUVECs): < 100 nM
Angiogenesis inhibition (HUVECs): +++ (angiogenesis inhibition ≥ 80%)
IC50 (EoL-1 cells): 1 to 10 nM
Cytotoxicity (EoL-1 cells): ++ (50% ≤ cytotoxicity < 85%)
IC50 (4T1 cells): < 1000 nM
Cytotoxicity (4T1 cells): +++ (cytotoxicity ≥ 85%)
IC50 (MDA-MB-231 cells): 1000 to 5000 nM
Cytotoxicity (MDA-MB-231 cells): +++ (cytotoxicity ≥ 85%)

CC(C)(C)c1cc(NC(=O)Nc2ccc(Oc3ccnc4c3CCC(=O)N4)cc2C(F)(F)F)n(-c2cccnc2)n1 [Compound 030, 1-[5-tert-butyl-2-(3-pyridyl)pyrazol-3-yl]-3-[4-[(7-oxo-6,8-dihydro-5H-1,8-naphthyridin-4-yl)oxy]-2-(trifluoromethyl)phenyl]urea]
Cytotoxicity (RD cells; 2 day-treatment): ++ (50% ≤ cytotoxicity < 85%)
Cytotoxicity (RD cells; 4 day-treatment): ++ (50% ≤ cytotoxicity < 85%)
IC50 (RD cells; 48 h, 2 day-treatment): 5000 to 10000 nM
IC50 (RD cells; 96 h, 4 day-treatment): 5000 to 10000 nM
IC50 (HUVECs): < 100 nM
Angiogenesis inhibition (HUVECs): +++ (angiogenesis inhibition ≥ 80%)
IC50 (EoL-1 cells): 10 to 100 nM
Cytotoxicity (EoL-1 cells): ++ (50% ≤ cytotoxicity < 85%)
IC50 (4T1 cells): 1000 to 5000 nM
Cytotoxicity (4T1 cells): +++ (cytotoxicity ≥ 85%)
IC50 (MDA-MB-231 cells): 1000 to 5000 nM
Cytotoxicity (MDA-MB-231 cells): ++ (50% ≤ cytotoxicity < 85%)

CSc1cc(Oc2ccnc3c2OCC(=O)N3)ccc1NC(=O)Nc1cc(C(C)(C)C)nn1-c1ccc(F)cc1F [Compound 031, 1-[5-tert-butyl-2-(2,4-difluorophenyl)pyrazol-3-yl]-3-[2-methylsulfanyl-4-[(3-oxo-4H-pyrido[3,2-b][1,4]oxazin-8-yl)oxy]phenyl]urea]
Cytotoxicity (RD cells; 2 day-treatment): ++ (50% ≤ cytotoxicity < 85%)
Cytotoxicity (RD cells; 4 day-treatment): ++ (50% ≤ cytotoxicity < 85%)
IC50 (RD cells; 48 h, 2 day-treatment): 1000 to 5000 nM
IC50 (RD cells; 96 h, 4 day-treatment): 1000 to 5000 nM
IC50 (HUVECs): 100 to 500 nM
Angiogenesis inhibition (HUVECs): +++ (angiogenesis inhibition ≥ 80%)
IC50 (EoL-1 cells): 1 to 10 nM
Cytotoxicity (EoL-1 cells): +++ (cytotoxicity ≥ 85%)
IC50 (4T1 cells): 1000 to 5000 nM
Cytotoxicity (4T1 cells): +++ (cytotoxicity ≥ 85%)
IC50 (MDA-MB-231 cells): 1000 to 5000 nM
Cytotoxicity (MDA-MB-231 cells): ++ (50% ≤ cytotoxicity < 85%)

CSc1cc(Oc2ccnc3c2OCC(=O)N3)ccc1NC(=O)Nc1cc(C(C)(C)C)nn1-c1ccc(CN(C)C)cc1 [Compound 033, 1-[5-tert-butyl-2-[4-[(dimethylamino)methyl]phenyl]pyrazol-3-yl]-3-[2-methylsulfanyl-4-[(3-oxo-4H-pyrido[3,2-b][1,4]oxazin-8-yl)oxy]phenyl]urea]
Cytotoxicity (RD cells; 2 day-treatment): +++ (cytotoxicity ≥ 85%)
Cytotoxicity (RD cells; 4 day-treatment): +++ (cytotoxicity ≥ 85%)
IC50 (RD cells; 48 h, 2 day-treatment): 1000 to 5000 nM
IC50 (RD cells; 96 h, 4 day-treatment): 1000 to 5000 nM
IC50 (HUVECs): < 100 nM
Angiogenesis inhibition (HUVECs): +++ (angiogenesis inhibition ≥ 80%)
IC50 (EoL-1 cells): 1 to 10 nM
Cytotoxicity (EoL-1 cells): +++ (cytotoxicity ≥ 85%)
IC50 (4T1 cells): < 1000 nM
Cytotoxicity (4T1 cells): +++ (cytotoxicity ≥ 85%)
IC50 (MDA-MB-231 cells): 1000 to 5000 nM
Cytotoxicity (MDA-MB-231 cells): +++ (cytotoxicity ≥ 85%)

CN(C)Cc1ccc(-n2nc(C(C)(C)C)cc2NC(=O)Nc2ccc(Oc3ccnc4c3CCC(=O)N4)cc2C(F)(F)F)cc1 [Compound 034, 1-[5-tert-butyl-2-[4-[(dimethylamino)methyl]phenyl]pyrazol-3-yl]-3-[4-[(7-oxo-6,8-dihydro-5H-1,8-naphthyridin-4-yl)oxy]-2-(trifluoromethyl)phenyl]urea]
Cytotoxicity (RD cells; 2 day-treatment): +++ (cytotoxicity ≥ 85%)
Cytotoxicity (RD cells; 4 day-treatment): +++ (cytotoxicity ≥ 85%)
IC50 (RD cells; 48 h, 2 day-treatment): 1000 to 5000 nM
IC50 (RD cells; 96 h, 4 day-treatment): 1000 to 5000 nM
IC50 (HUVECs): < 100 nM
Angiogenesis inhibition (HUVECs): +++ (angiogenesis inhibition ≥ 80%)
IC50 (EoL-1 cells): 1 to 10 nM
Cytotoxicity (EoL-1 cells): ++ (50% ≤ cytotoxicity < 85%)
IC50 (4T1 cells): < 1000 nM
Cytotoxicity (4T1 cells): +++ (cytotoxicity ≥ 85%)
IC50 (MDA-MB-231 cells): 1000 to 5000 nM
Cytotoxicity (MDA-MB-231 cells): +++ (cytotoxicity ≥ 85%)

CSc1cc(Oc2ccnc3c2OCC(=O)N3)ccc1NC(=O)Nc1cc(C(C)(C)C)nn1-c1cccc(CN2CCOCC2)c1 [Compound 035, 1-[5-tert-butyl-2-[3-(morpholinomethyl)phenyl]pyrazol-3-yl]-3-[2-methylsulfanyl-4-[(3-oxo-4H-pyrido[3,2-b][1,4]oxazin-8-yl)oxy]phenyl]urea]
Cytotoxicity (RD cells; 2 day-treatment): ++ (50% ≤ cytotoxicity < 85%)
Cytotoxicity (RD cells; 4 day-treatment): ++ (50% ≤ cytotoxicity < 85%)
IC50 (RD cells; 48 h, 2 day-treatment): 1000 to 5000 nM
IC50 (RD cells; 96 h, 4 day-treatment): 5000 to 10000 nM
IC50 (HUVECs): 100 to 500 nM
Angiogenesis inhibition (HUVECs): +++ (angiogenesis inhibition ≥ 80%)
IC50 (EoL-1 cells): 1 to 10 nM
Cytotoxicity (EoL-1 cells): +++ (cytotoxicity ≥ 85%)
IC50 (4T1 cells): 1000 to 5000 nM
Cytotoxicity (4T1 cells): +++ (cytotoxicity ≥ 85%)
IC50 (MDA-MB-231 cells): 1000 to 5000 nM
Cytotoxicity (MDA-MB-231 cells): +++ (cytotoxicity ≥ 85%)

CC(C)(C)c1cc(NC(=O)Nc2ccc(Oc3ccnc4c3OCC(=O)N4)cc2C(F)(F)F)on1 [Compound 037, 1-(3-tert-butylisoxazol-5-yl)-3-[4-[(3-oxo-4H-pyrido[3,2-b][1,4]oxazin-8-yl)oxy]-2-(trifluoromethyl)phenyl]urea]
Cytotoxicity (RD cells; 2 day-treatment): ++ (50% ≤ cytotoxicity < 85%)
Cytotoxicity (RD cells; 4 day-treatment): ++ (50% ≤ cytotoxicity < 85%)
IC50 (RD cells; 48 h, 2 day-treatment): 5000 to 10000 nM
IC50 (RD cells; 96 h, 4 day-treatment): 1000 to 5000 nM
IC50 (HUVECs): 100 to 500 nM
Angiogenesis inhibition (HUVECs): ++ (80% > angiogenesis inhibition ≥ 50%)
IC50 (EoL-1 cells): 1 to 10 nM
Cytotoxicity (EoL-1 cells): +++ (cytotoxicity ≥ 85%)
IC50 (4T1 cells): 1000 to 5000 nM
Cytotoxicity (4T1 cells): +++ (cytotoxicity ≥ 85%)
IC50 (MDA-MB-231 cells): 1000 to 5000 nM
Cytotoxicity (MDA-MB-231 cells): ++ (50% ≤ cytotoxicity < 85%)

CSc1cc(Oc2ccnc3c2OCC(=O)N3)ccc1NC(=O)Nc1cc(C(C)(C)C)nn1-c1ccc(CN2CCOCC2)cc1 [Compound 038, 1-[5-tert-butyl-2-[4-(morpholinomethyl)phenyl]pyrazol-3-yl]-3-[2-methylsulfanyl-4-[(3-oxo-4H-pyrido[3,2-b][1,4]oxazin-8-yl)oxy]phenyl]urea]
Cytotoxicity (RD cells; 2 day-treatment): ++ (50% ≤ cytotoxicity < 85%)
Cytotoxicity (RD cells; 4 day-treatment): ++ (50% ≤ cytotoxicity < 85%)
IC50 (RD cells; 48 h, 2 day-treatment): 1000 to 5000 nM
IC50 (RD cells; 96 h, 4 day-treatment): 1000 to 5000 nM
IC50 (HUVECs): 100 to 500 nM
Angiogenesis inhibition (HUVECs): +++ (angiogenesis inhibition ≥ 80%)
IC50 (EoL-1 cells): 1 to 10 nM
Cytotoxicity (EoL-1 cells): ++ (50% ≤ cytotoxicity < 85%)
IC50 (4T1 cells): 1000 to 5000 nM
Cytotoxicity (4T1 cells): +++ (cytotoxicity ≥ 85%)
IC50 (MDA-MB-231 cells): 1000 to 5000 nM
Cytotoxicity (MDA-MB-231 cells): ++ (50% ≤ cytotoxicity < 85%)

CC(C)(C)c1cc(NC(=O)Nc2ccc(Oc3ccnc4c3OCC(=O)N4)cc2C(F)(F)F)n(-c2cncc(F)c2)n1 [Compound 039, 1-[5-tert-butyl-2-(5-fluoro-3-pyridyl)pyrazol-3-yl]-3-[4-[(3-oxo-4H-pyrido[3,2-b][1,4]oxazin-8-yl)oxy]-2-(trifluoromethyl)phenyl]urea]
Cytotoxicity (RD cells; 2 day-treatment): ++ (50% ≤ cytotoxicity < 85%)
Cytotoxicity (RD cells; 4 day-treatment): + (20 % ≤ cytotoxicity < 50%)
IC50 (RD cells; 48 h, 2 day-treatment): 1000 to 5000 nM
IC50 (RD cells; 96 h, 4 day-treatment): 5000 to 10000 nM
IC50 (HUVECs): < 100 nM
Angiogenesis inhibition (HUVECs): +++ (angiogenesis inhibition ≥ 80%)
IC50 (EoL-1 cells): 10 to 100 nM
Cytotoxicity (EoL-1 cells): ++ (50% ≤ cytotoxicity < 85%)
IC50 (4T1 cells): < 1000 nM
Cytotoxicity (4T1 cells): +++ (cytotoxicity ≥ 85%)
IC50 (MDA-MB-231 cells): 1000 to 5000 nM
Cytotoxicity (MDA-MB-231 cells): ++ (50% ≤ cytotoxicity < 85%)
